{"source": "paper PMC7093798", "about": "(Data in Brief, 2019)", "test_system": "aminopyrine N-demethylase activity (CYP)", "assay": "CYP inhibition: aminopyrine N-demethylase", "assay_type": "in vitro ADME, rat", "conditions": "RLM, 1–100 μM"}
{"smiles": "O=C(/C=C/c1cccnc1)NCCCCC1CCN(C(=O)c2ccccc2)CC1", "note": "[FK866]", "values": [{"measurement": "AND inhibitory activity (in words)", "result": "mild AND inhibitory activity only at 100 μM concentration"}]}
